Results: patent publication US20090246273A1, “Ketorolac Sublingual Spray for the Treatment of Pain” (priority 2008, published 2009)

Tests used:
[1] = In vivo absorption of ketorolac spray from the sublingual cavity (plasma levels vs intravenous); parameters: species or system rabbit; conditions: rabbits
Protocol: These experiments determine the bioavailability of ketorolac after transmucosal administration to the sublingual tissue in rabbit and compare it to that after intravenous administration.
The transmucosal absorption of ketorolac was measured using an in vivo technique in rabbits. Following introduction of lidocaine local anesthesia, a catheter was placed in the marginal ear artery of the rabbit for blood sample collection. For intravenous administration, a catheter was placed in the marginal ear vein of the rabbit and ketorolac aqueous solution (0.5 mg/kg, 0.1 mL) was administered; a sterile drug solution was prepared by filtration (double 0.22 μm filters). A dose of […] ketorolac was injected into the marginal ear vein cannula followed by a 0.1 mL flush with 10% (v/v) heparin/normal saline solution to keep the cannula patent.
For sublingual spray administration, the ketorolac dose (3 mg/kg, 0.1 mL) of the ketorolac formulation was applied by spray to the sublingual mucosa of the rabbit.
Aliquot parts of 0.5 mL blood samples were collected at predetermined time points, collected into pre-heparinized tubes and immediately placed on ice. […]
Bioavailability of sublingually administered drug was calculated by comparing the plasma drug concentration between sublingual and intravenous delivery routes and expressed as a percentage of the intravenous bioavailability. […]

[2] = rapid metabolism of ketorolac; background on the intravenous mode of delivery; cited from earlier work

time of peak plasma concentration following transmucosal administration ([1]; sublingual spray 3 mg/kg single dose, n=3): approximately 10 minutes
absorption following transmucosal administration through the sublingual route (comparing areas under the plasma concentration versus time curves) ([1]; sublingual spray 3 mg/kg vs intravenous 0.5 mg/kg, over 180 minutes): rapidly and completely absorbed
Structure (SMILES): O=C(c1ccccc1)c1ccc2n1CCC2C(=O)O (stereo not drawn) [ketorolac, 5-benzoyl-2,3-dihydro-1H-Pyrrolizine-1-carboxylic acid]
half-life [2]: 4 to 5 h
